Measured values: patent US11584736B2, “Heterocyclic P2Y14 receptor antagonists” (The United States of America, as represented by the …, priority 2018, dated 2023)
Read-outs that look alike come from different tables or passages of the source.

Columns and labels:
hP2Y14R = target: T1, hP2Y14R (Homo sapiens, UniProt Q15391); assay: Competitive fluorescent binding assay, flow cytometry of whole hP2Y14R-CHO cells
T1 construct: expressed in transfected cells
T1 sequence (Q15391 1-338): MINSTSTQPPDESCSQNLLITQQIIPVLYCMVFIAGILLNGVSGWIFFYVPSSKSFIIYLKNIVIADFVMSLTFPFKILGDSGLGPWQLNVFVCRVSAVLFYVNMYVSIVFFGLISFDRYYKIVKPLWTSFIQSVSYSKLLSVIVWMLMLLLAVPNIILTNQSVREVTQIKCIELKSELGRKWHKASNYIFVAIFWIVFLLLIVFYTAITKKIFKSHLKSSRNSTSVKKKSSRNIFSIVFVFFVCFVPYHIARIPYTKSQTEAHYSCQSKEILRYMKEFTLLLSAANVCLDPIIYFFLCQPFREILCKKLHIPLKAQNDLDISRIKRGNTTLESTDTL
Procedure: Cell Culture: Chinese hamster ovary cells stably expressing the hP2Y14—R (CHO-hP2Y14R) were grown in Dulbecco's Modified Eagle's Medium (DMEM)/Ham's F12 (F12) 1:1 supplemented with 10% FBS, 100 units/mL penicillin, […] streptomycin, 2 mM L-glutamine and 0.500 mg/mL G418 Sulfate (Geneticin). Cells were maintained in a humidified atmosphere and sterile incubation conditions held at 37° C. and 5% CO2 (g).
Competitive Assay: Competitive fluorescent assays were performed on a BD FACSCalibur flow cytometer in conjunction with the softwares BD Bioscience PlateManager and CellQuest. All cell culture growth and assays for this procedure were conducted on flat-bottom 96-well plates. CHO-hP2Y14R cells were grown to approximately 80-90% confluency prior to assays. The 96-well plate format enabled four compounds to be analyzed in triplicate per run. All unlabeled ligand compounds are stored as 5 mM stock solutions in dimethyl sulfoxide (DMSO). Serial dilutions of each compound were prepared in complete medium. Cells were initially incubated with unlabeled compounds for 30 min at 37° C. and 5% CO2 (g). […] After three consecutive washes in sterile 1× Dulbecco's Phosphate Buffered Saline (DPBS) minus Ca^2+/Mg^2+, cells were detached from the plate using Corning Cellstripper™ to reduce damaging the hP2Y14R protein. Final cell suspensions for flow cytometry was in DPBS minus Ca^2+/Mg^2+.
IC50 values were determined from the gathered data with the program GraphPad Prism version 7.0.

[1] = test system: eosinophils in the bronchoalveolar lavage fluid; assay: Protease-mediated mouse model of asthma; assay type: in vivo; settings: 10 mg/kg i.p., 30 minutes prior to ovalbumin challenge at day 14, P<0.01 vs vehicle
Procedure: […][…] antagonists were tested in vivo in a protease-mediated mouse model of asthma and found to be effective in reducing the presence of eosinophils in the bronchoalveolar lavage fluid. The animals were first sensitized with ovalbumin/Aspergillus oryzae extract on days 0 and 7. Antagonists were injected i.p. at a dose of 10 mg/kg, 30 minutes prior to an ovalbumin challenge at day 14. […] Both […][…] antagonist effects were statistically significant (P<0.01) compared to vehicle control.

mP2Y14R = target: T2, mP2Y14R (Mus musculus, UniProt Q9ESG6); assay: Fluorescence binding method at mP2Y14R expressed in HEK293 cells; settings: Table 3
T2 construct: expressed in transfected cells; host or cells: HEK293 cells
T2 sequence (Q9ESG6 1-338): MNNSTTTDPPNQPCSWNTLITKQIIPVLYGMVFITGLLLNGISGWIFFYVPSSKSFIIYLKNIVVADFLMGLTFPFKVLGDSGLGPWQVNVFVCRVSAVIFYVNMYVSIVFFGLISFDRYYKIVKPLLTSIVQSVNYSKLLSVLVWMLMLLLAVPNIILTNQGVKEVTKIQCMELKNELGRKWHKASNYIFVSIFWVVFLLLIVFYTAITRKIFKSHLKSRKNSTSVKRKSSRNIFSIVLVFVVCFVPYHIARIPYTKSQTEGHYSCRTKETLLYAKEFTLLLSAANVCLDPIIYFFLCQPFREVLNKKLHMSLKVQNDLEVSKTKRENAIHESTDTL
Text: This example compares inhibitory potency of antagonists at the mP2Y14R to the hP2Y14R expressed in HEK293 cells, using the fluorescence binding method.

[2] = Table 2, hP2Y14R-CHO cells, fluorescent antagonist tracer 20 nM, mean ± SEM (n = 3-5), read-out: IC50
[3] = Table 3 comparison column, values identical to Tables 1 and 2, read-out: hP2Y14R, IC50
[4] = Table 1, hP2Y14R-CHO cells, fluorescent antagonist tracer 20 nM, mean ± SEM (n = 3-5), read-out: IC50

With `O=C(O)c1cc(-c2ccc(C3CCNCC3)cc2)cc(-c2cn(-c3ccc(C(F)(F)F)cc3)nn2)c1` [Compound 25, 4′-(Piperidin-4-yl)-5-(1-(4-(trifluoromethyl)phenyl)-1H-1,2,3-triazol-4-yl)-[1,1′-biphenyl]-3-carboxylic acid] as the compound, how does the IC50 (hP2Y14R; [2]) read?
Its IC50 is 644 ± 175 nM.

What about the IC50 (hP2Y14R; [3]) of the same compound?
The IC50 was 644 ± 175 nM.

For `NCCCNC(=O)c1ccc(-c2cc(C(=O)O)cc(-c3cn(-c4ccc(C(F)(F)F)cc4)nn3)c2)s1` [Compound 26, 3-(5-((3-Aminopropyl)carbamoyl)thiophen-2-yl)-5-(1-(4-(trifluoromethyl)phenyl)-1H-1,2,3-triazol-4-yl)benzoic acid], which IC50 (hP2Y14R; [2]) is on record?
The IC50 was 2600 ± 560 nM.

Which IC50 (hP2Y14R; [4]) does the source give for `O=C(O)c1cc(-c2ccc(C34CCN(CC3)CC4)cc2)c2ccc(-c3ccc(C(F)(F)F)cc3)cc2c1` [Compound 17, 4-(4-(Quinuclidin-4-yl)phenyl)-7-(4-(trifluoromethyl)phenyl)-2-naphthoic acid] here?
Its IC50 is 20 ± 4.4 nM.

How did the IC50 (hP2Y14R; [2]) turn out when `O=C(O)c1[nH]c(-c2ccc(C3=CCNCC3)cc2)cc1-n1cc(-c2ccc(C(F)(F)F)cc2)nn1` [Compound 33, 5-(4-(1,2,3,6-Tetrahydropyridin-4-yl)phenyl)-3-(4-(4-(trifluoromethyl)phenyl)-1H-1,2,3-triazol-1-yl)-1H-pyrrole-2-carboxylic acid] was run?
The IC50 was greater than 100000 nM.

For `CN1CCC(c2ccc(-c3cc(C(=O)O)cc4cc(-c5ccc(C(F)(F)F)cc5)ccc34)cc2)CC1` [Compound 5, 4-(4-(1-Methylpiperidin-4-yl)phenyl)-7-(4-(trifluoromethyl)phenyl)-2-naphthoic acid], which IC50 (hP2Y14R; [4]) is on record?
Its IC50 is 195 ± 120 nM.

For `O=C(O)c1cc(-c2ccc(C34CCNCC3C4)cc2)cc(-n2cc(-c3ccc(C(F)(F)F)cc3)nn2)c1` (stereo not shown) [Compound 18, 4′-(3-Azabicyclo[4.1.0]heptan-6-yl)-5-(4-(4-(trifluoromethyl)phenyl)-1H-1,2,3-triazol-1-yl)-[1,1′-biphenyl]-3-carboxylic acid], which IC50 (hP2Y14R; [4]) is on record?
The IC50 was roughly 400 nM.

With `N#Cc1cc(-c2ccc(C3CCNCC3)cc2)cc(-n2cc(-c3ccc(C(F)(F)F)cc3)nn2)c1` [Compound 16, 4′-(Piperidin-4-yl)-5-(4-(4-(trifluoromethyl)phenyl)-1H-1,2,3-triazol-1-yl)-[1,1′-biphenyl]-3-carbonitrile] as the compound, how does the IC50 (hP2Y14R; [4]) read?
The IC50 was 42100 ± 8400 nM.

With `NC(=O)c1cc(-c2ccc(C3CCNCC3)cc2)cc(-n2cc(-c3ccc(C(F)(F)F)cc3)nn2)c1` [Compound 15, 4′-(Piperidin-4-yl)-5-(4-(4-(trifluoromethyl)phenyl)-1H-1,2,3-triazol-1-yl)-[1,1′-biphenyl]-3-carboxamide] as the compound, how does the IC50 (hP2Y14R; [4]) read?
Its IC50 is greater than 100000 nM.

Which IC50 (hP2Y14R; [2]) does the source give for `NC(=O)c1ccc(-c2cc(NC(=O)c3ccc(C(F)(F)F)cc3)cc(C(=O)O)c2)cc1` [Compound 27, 4′-Carbamoyl-5-(4-(trifluoromethyl)benzamido)-[1,1′-biphenyl]-3-carboxylic acid] here?
The IC50 was 3050 ± 210 nM.

Which IC50 (hP2Y14R; [2]) does the source give for `NC(=O)c1ccc(-c2cc(C(=O)O)cc(-c3cn(-c4ccc(C(F)(F)F)cc4)nn3)c2)cc1` [Compound 24, 4′-Carbamoyl-5-(1-(4-(trifluoromethyl)phenyl)-1H-1,2,3-triazol-4-yl)-[1,1′-biphenyl]-3-carboxylic acid] here?
Its IC50 is 1680 ± 380 nM.

How did the “eosinophils in the bronchoalveolar lavage fluid, normalized and compared to vehicle (100±15%)” value [1] turn out when `NCCCNC(=O)c1ccc(-c2cc(C(=O)O)cc(-n3cc(-c4ccc(C(F)(F)F)cc4)nn3)c2)s1` [Compound 23] was run?
The value was 40.3±11.0%.

How did the IC50 (hP2Y14R; [4]) turn out when `CCCCCCN1CCC(c2ccc(-c3cc(C(=O)O)cc4cc(-c5ccc(C(F)(F)F)cc5)ccc34)cc2)CC1` [Compound 9, 4-(4-(1-Hexylpiperidin-4-yl)phenyl)-7-(4-(trifluoromethyl)phenyl)-2-naphthoic acid] was run?
Its IC50 is 131 ± 11 nM.

How did the “eosinophils in the bronchoalveolar lavage fluid, normalized and compared to vehicle (100±15%)” value [1] turn out when `O=C(O)c1cc(-c2ccc(C3CCNCC3)cc2)c2ccc(-c3ccc(C(F)(F)F)cc3)cc2c1` [Compound 1] was run?
The value was 43.9±12.8%.

`O=C(O)c1cc(-c2ccc(N3CCNCC3)cc2)cc(-n2cc(-c3ccc(C(F)(F)F)cc3)nn2)c1` [Compound 4, 4′-(Piperazin-1-yl)-5-(4-(4-(trifluoromethyl)phenyl)-1H-1,2,3-triazol-1-yl)-[1,1′-biphenyl]-3-carboxylic acid] was tested. Which IC50 (mP2Y14R) did it give?
The IC50 was 499 ± 57 nM.

What about the IC50 (hP2Y14R; [3]) of the same compound?
Its IC50 is 233 ± 26 nM.

`CCCN1CCC(c2ccc(-c3cc(C(=O)O)cc4cc(-c5ccc(C(F)(F)F)cc5)ccc34)cc2)CC1` [Compound 7, 4-(4-(1-Propylpiperidin-4-yl)phenyl)-7-(4-(trifluoromethyl)phenyl)-2-naphthoic acid] was tested. Which IC50 (hP2Y14R; [4]) did it give?
Its IC50 is 133 ± 111 nM.

How did the IC50 (hP2Y14R; [4]) turn out when `CC(C)(C)OC(=O)N1CCC(c2ccc(-c3cc(C(=O)O)cc4cc(-c5ccc(C(F)(F)F)cc5)ccc34)cc2)CC1` [Compound 10, 4-(4-(1-(tert-butoxycarbonyl)piperidin-4-yl)phenyl)-7-(4-(trifluoromethyl)phenyl)-2-naphthoic acid] was run?
Its IC50 is 2440 ± 1540 nM.

How did the IC50 (hP2Y14R; [4]) turn out when `NCCOCCOCCOCCOCCOCCOCCC(=O)N1CCC(c2ccc(-c3cc(C(=O)O)cc4cc(-c5ccc(C(F)(F)F)cc5)ccc34)cc2)CC1` [Compound 12, 4-(4-(1-(1-Amino-3,6,9,12,15,18-hexaoxahenicosan-21-oyl)piperidin-4-yl)phenyl)-7-(4-(trifluoromethyl)phenyl)-2-naphthoic acid] was run?
The IC50 was 963 ± 417 nM.

`NC(=O)c1ccc(-c2cc(C(=O)O)cc(C(=O)Nc3ccc(C(F)(F)F)cc3)c2)cc1` [Compound 29, 4′-Carbamoyl-5-((4-(trifluoromethyl)phenyl)carbamoyl)-[1,1′-biphenyl]-3-carboxylic acid] was tested. Which IC50 (hP2Y14R; [2]) did it give?
The IC50 was 6040 ± 810 nM.

`C#CCN1CCC(c2ccc(-c3cc(C(=O)O)cc4cc(-c5ccc(C(F)(F)F)cc5)ccc34)cc2)CC1` [Compound 6, 4-(4-(1-(Prop-2-yn-1-yl)piperidin-4-yl)phenyl)-7-(4-(trifluoromethyl)phenyl)-2-naphthoic acid] was tested. Which IC50 (hP2Y14R; [4]) did it give?
Its IC50 is 139 ± 19 nM.

Which IC50 (hP2Y14R; [2]) does the source give for `O=C(O)c1cc(-c2ccc(C3CCNCC3)cc2)c2nc(-c3ccc(C(F)(F)F)cc3)[nH]c2c1` [Compound 35, 4-(4-(Piperidin-4-yl)phenyl)-2-(4-(trifluoromethyl)phenyl)-1H-benzo[d]imidazole-6-carboxylic acid] here?
Its IC50 is greater than 100000 nM.
